Source: publication PMC8119466, “A screen of FDA-approved drugs identifies inhibitors of protein tyrosine phosphatase 4A3 (PTP4A3 or PRL-3)” (Scientific Reports, 2021)
Structures can show the parent of a compound that is named as a salt. Where two headings read alike, the source gives them in different places.

How the values were obtained:
Type in all cases: biochemical
recombinant PRL-3 = target: T1, recombinant PRL-3 (Homo sapiens, UniProt O75365); experiment: In vitro phosphatase assay (DiFMUP hydrolysis), PRL-3; note: test concentration or dose not given here
T1 construct: 6xHis (N, cleaved yes); made in house; host or cells: E. coli One Shot BL21 Star
T1 sequence (O75365 whole entry): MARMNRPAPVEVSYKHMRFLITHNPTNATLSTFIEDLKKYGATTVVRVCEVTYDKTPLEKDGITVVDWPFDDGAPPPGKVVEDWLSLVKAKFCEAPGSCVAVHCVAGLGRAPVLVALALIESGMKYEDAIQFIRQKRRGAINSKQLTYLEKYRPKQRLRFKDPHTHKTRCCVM

recombinant PRL-2 = target: T2, recombinant PRL-2 (Homo sapiens, UniProt Q12974); experiment: In vitro phosphatase assay (DiFMUP hydrolysis), PRL-2;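 note: PRL-2 activity read as DiFMUP hydrolysis after 20 min at room temperature with drug, enzyme first pre-reduced at 4 °C for 20 min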
T2 construct: 6xHis (N, cleaved yes); made in house; host or cells: E. coli One Shot BL21 Star
T2 sequence (Q12974 1-167): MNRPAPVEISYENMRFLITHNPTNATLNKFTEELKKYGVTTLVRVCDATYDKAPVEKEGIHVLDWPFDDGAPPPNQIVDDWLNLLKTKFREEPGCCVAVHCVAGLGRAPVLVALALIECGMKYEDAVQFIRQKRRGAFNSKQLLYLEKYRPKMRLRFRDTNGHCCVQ

recombinant PRL-1 = target: T3, recombinant PRL-1 (Homo sapiens, UniProt Q93096); experiment: In vitro phosphatase assay (DiFMUP hydrolysis), PRL-1; note: test concentration or dose not given here
T3 construct: 6xHis (N, cleaved yes); made in house; host or cells: E. coli One Shot BL21 Star
T3 sequence (Q93096 1-173): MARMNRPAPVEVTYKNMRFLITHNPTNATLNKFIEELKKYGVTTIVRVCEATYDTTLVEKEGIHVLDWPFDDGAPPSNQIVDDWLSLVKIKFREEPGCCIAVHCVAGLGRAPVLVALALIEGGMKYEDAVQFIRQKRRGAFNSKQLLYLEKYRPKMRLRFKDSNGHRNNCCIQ

[1] = FDA-approved drug screen, compared to DMSO
[2] = FDA-approved drug screen, activity compared to DMSO

Molecule	% Phosphatase Activity (compared to DMSO) PRL-3 (recombinant PRL-3; [1])	% Phosphatase Activity (compared to DMSO) PRL-2 (recombinant PRL-2; [1])	% Phosphatase Activity (compared to DMSO) PRL-1 (recombinant PRL-1; [1])	further results
CNC(=O)[C@@H](NC(=O)[C@H](CC(C)C)[C@H](O)C(=O)NO)C(C)(C)C [Marimastat(BB-2516)]	91%	77%	85%	
COCCc1ccc(OCC(O)CNC(C)C)cc1 (stereo not drawn) [Metoprolol Tartrate]	98%	109%	89%	
CC[C@@H]1/C=C(\C)C[C@H](C)C[C@H](OC)[C@H]2O[C@@](O)(C(=O)C(=O)N3CCCC[C@H]3C(=O)O[C@H](/C(C)=C/[C@@H]3CC[C@H](Cl)[C@H](OC)C3)[C@H](C)[C@@H](O)CC1=O)[C@H](C)C[C@@H]2OC [Pimecrolimus]	101%	73%	87%	
Cc1ccc(C(=O)N(CCCN)[C@@H](c2nc3cc(Cl)ccc3c(=O)n2Cc2ccccc2)C(C)C)cc1 [Ispinesib (SB-715992)]	80%	108%	103%	
CC(=O)Oc1ccc(C(c2ccc(OC(C)=O)cc2)c2ccccn2)cc1 [Bisacodyl]	66%	104%	88%	
CCOC(=O)c1cncn1[C@H](C)c1ccccc1 [Etomidate]	79%	91%	98%	
CCCc1cc(=O)[nH]c(=S)[nH]1 [Propylthiouracil]				% Phosphatase Activity (compared to DMSO) PRL-3 (recombinant PRL-3): 91%; % Phosphatase Activity (compared to DMSO) PRL-2 (recombinant PRL-2): 93%; % Phosphatase Activity (compared to DMSO) PRL-1 (recombinant PRL-1): 94%
COc1ccc([C@H]2CNC(=O)C2)cc1OC1CCCC1 [S- (+)-Rolipram]	87%	110%	107%	
NC[C@@H]1O[C@H](O[C@H]2[C@@H](O)[C@H](O[C@@H]3[C@@H](O)[C@H](N)C[C@H](N)[C@H]3O[C@H]3O[C@H](CO)[C@@H](O)[C@H](O)[C@H]3N)O[C@@H]2CO)[C@H](N)[C@@H](O)[C@@H]1O [Paromomycin Sulfate]	112%	110%	93%	
CNC[C@H](O)[C@@H](O)[C@H](O)[C@H](O)CO [Meglumine]	110%	125%	105%	
CC(C)(C)c1cc(C(C)(C)C)c(NC(=O)c2c[nH]c3ccccc3c2=O)cc1O [Ivacaftor (VX-770)]	77%	87%	95%	
CCOc1cc2ncc(C#N)c(Nc3ccc(OCc4ccccn4)c(Cl)c3)c2cc1NC(=O)/C=C/CN(C)C [Neratinib (HKI-272)]	91%	111%	110%	
COc1ccccc1N1CCN(CC(O)COc2cccc3ccccc23)CC1 (stereo not drawn) [Naftopidil]	94%	111%	109%	
COC(=O)C1=C(C)NC(C)=C(C(=O)OC(C)C)C1c1cccc2nonc12 (stereo not drawn) [Isradipine]	71%	74%	94%	
CC[C@H](CO)Nc1nc(NCc2ccccc2)c2ncn(C(C)C)c2n1 [Roscovitine (Seliciclib,CYC202)]				% Phosphatase Activity (compared to DMSO) PRL-3 (recombinant PRL-3): 96%; % Phosphatase Activity (compared to DMSO) PRL-2 (recombinant PRL-2): 111%; % Phosphatase Activity (compared to DMSO) PRL-1 (recombinant PRL-1): 108%
Cl.c1ccc2c(c1)CCCC2C1=NCCN1 (stereo not drawn) [Tetrahydrozoline HCl]				% Phosphatase Activity (compared to DMSO) PRL-3 (recombinant PRL-3; [2]): 58%; % Phosphatase Activity (compared to DMSO) PRL-2 (recombinant PRL-2; [2]): 109%; % Phosphatase Activity (compared to DMSO) PRL-1 (recombinant PRL-1; [2]): 111%
CCCNC(C)C(=O)Nc1c(C)csc1C(=O)OC (stereo not drawn) [Articaine HCl]	84%	109%	110%	
Cc1c(C(=O)NN2CCCCC2)nn(-c2ccc(Cl)cc2Cl)c1-c1ccc(Cl)cc1 [Rimonabant]	98%	116%	103%	
Nc1nc(=O)c2c([nH]1)NC[C@H](CNc1ccc(C(=O)N[C@@H](CCC(=O)[O-])C(=O)[O-])cc1)N2C=O.[Ca+2] [Calcium Levofolinate]	105%	101%	96%	
C[N+](C)(C)C[C@H](O)CC(=O)[O-] [L-carnitine]	83%	103%	102%	
CC(=O)/N=c1/sc(S(N)(=O)=O)nn1C [Methazolamide]	88%	114%	110%	
Escin	95%	73%	72%	
Spiramycin				% Phosphatase Activity (compared to DMSO) PRL-3 (recombinant PRL-3; [2]): 68%; % Phosphatase Activity (compared to DMSO) PRL-2 (recombinant PRL-2; [2]): 90%; % Phosphatase Activity (compared to DMSO) PRL-1 (recombinant PRL-1; [2]): 86%
Cc1ccc(-c2cc(C(F)(F)F)nn2-c2ccc(S(N)(=O)=O)cc2)cc1 [Celecoxib]	71%	81%	92%	
CCC1=C[C@@H]2CN(C1)Cc1c([nH]c3ccccc13)[C@@](C(=O)OC)(c1cc3c(cc1OC)N(C)[C@H]1[C@@](O)(C(=O)OC)[C@H](OC(C)=O)[C@]4(CC)C=CCN5CC[C@]31[C@@H]54)C2 [Vinorelbine Tartrate]				% Phosphatase Activity (compared to DMSO) PRL-3 (recombinant PRL-3; [2]): 83%; % Phosphatase Activity (compared to DMSO) PRL-2 (recombinant PRL-2; [2]): 98%; % Phosphatase Activity (compared to DMSO) PRL-1 (recombinant PRL-1; [2]): 89%
CCCCc1oc2ccc(NS(C)(=O)=O)cc2c1C(=O)c1ccc(OCCCN(CCCC)CCCC)cc1 [Dronedarone HCl]	96%	131%	116%	
Cc1cc(NC(=O)C2=C(O)c3ccccc3S(=O)(=O)N2C)no1 [Isoxicam]	84%	91%	91%	
Nc1ccccc1NC(=O)c1ccc(CNc2nccc(-c3cccnc3)n2)cc1 [Mocetinostat (MGCD0103)]	84%	108%	98%	
COc1ccc2[n-]c([S+]([O-])Cc3ncc(C)c(OC)c3C)nc2c1.COc1ccc2[n-]c([S+]([O-])Cc3ncc(C)c(OC)c3C)nc2c1.[Mg+2] (stereo not drawn) [Esomeprazole Magnesium]	93%	88%	84%	
Cn1nnc(-c2ccc(-c3ccc(N4C[C@H](COP(=O)(O)O)OC4=O)cc3F)cn2)n1 [Tedizolid Phosphate]				% Phosphatase Activity (compared to DMSO) PRL-3 (recombinant PRL-3; [2]): 87%; % Phosphatase Activity (compared to DMSO) PRL-2 (recombinant PRL-2; [2]): 97%; % Phosphatase Activity (compared to DMSO) PRL-1 (recombinant PRL-1; [2]): 97%
